Holding throughout (format): cell-based
Test [1] addresses T1, GHSR-1a (HEK293/GHSR1a cell line) (Homo sapiens, UniProt Q92847).
T1 construct: expressed in transfected cells; host or cells: HEK293/GHSR1a cell line
Briefly: Ghrelin agonist potency (EC50) with calcium FLIPR assay. In outline:
(§1)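 Calcium flux was followed 2 min by FLIPR in dye-loaded HEK293/GHSR1a cells. For antagonist IC50, compound and ghrelin (10 nM) were co-added at t=20 sec and inhibition of the ghrelin signal fitted; for agonist EC50, compound alone was added at t=20 sec and dose-response fitted.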

Test [2] concerns the target T2, recombinant human ghrelin receptor (HEK293/GRLN) (Homo sapiens, UniProt Q92847).
T2 construct: expressed in transfected cells
Put plainly: Ghrelin inverse agonist potency (EC50) with IP-1 (IP-One HTRF) assay. As to conditions: IP-1 assay. In outline: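 IP-1 accumulation was measured by HTRF (IP1-d2/Tb-cryptate, 620/665 nm read after 1 hour at room temperature) following 1 hour of compound treatment at 37° C. Cells were HEK293 stably expressing human ghrelin receptor, plated a day earlier on Matrigel. Inverse agonist potency was reported as EC50.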
(In general: TR-FRET usually uses a lanthanide donor and a delayed reading to cut background.)

In test [3] the target is T1, GHSR-1a (HEK293/GHSR1a cell line). Briefly: Ghrelin antagonist potency (IC50) with calcium FLIPR assay, ghrelin 10 nM. In outline: as §1
[4] abbreviates: HEK293/GHSR1a, read-out: Activity EC50/EMax: EC50 (ghrelin agonist potency).
The mark [5] stands for this setting: HEK293/GRLN, read-out: Activity EC50 (ghrelin inverse agonist potency).
Where [6] appears, read: HEK293/GHSR1a, ghrelin 10 nM, read-out: Activity IC50 (ghrelin antagonist potency).
Where [7] appears, read: ghrelin agonist potency, read-out: Activity EC50/EMax.
The mark [8] stands for this setting: ghrelin inverse agonist potency, read-out: Activity EC50.
[9] abbreviates: ghrelin antagonist potency, read-out: Activity IC50.

Like-named read-outs stand apart in the source and are kept apart here.

T1 sequence (Q92847 whole entry): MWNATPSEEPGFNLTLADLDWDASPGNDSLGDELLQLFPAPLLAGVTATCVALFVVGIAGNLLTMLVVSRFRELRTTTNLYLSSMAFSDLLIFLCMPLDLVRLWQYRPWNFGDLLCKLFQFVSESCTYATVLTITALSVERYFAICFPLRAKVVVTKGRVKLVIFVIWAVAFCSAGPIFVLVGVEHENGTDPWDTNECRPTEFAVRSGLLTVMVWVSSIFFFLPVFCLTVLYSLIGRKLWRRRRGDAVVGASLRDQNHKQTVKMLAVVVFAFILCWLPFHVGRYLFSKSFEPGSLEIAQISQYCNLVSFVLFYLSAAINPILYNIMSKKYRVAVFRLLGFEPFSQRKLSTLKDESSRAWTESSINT
T2 sequence (Q92847 whole entry): as above

In the case of `COc1cc(S(=O)(=O)Cc2ccc3c(c2)CCNC3)ccc1NC(=O)N(C)C(C)c1cccc(Cl)c1Cl` (stereo not drawn) [H1443, 1-(1-(2,3-dichlorophenyl)ethyl)-3-(2-methoxy-4-(((1,2,3,4-tetrahydroisoquinolin-6-yl)methyl)sulfonyl)phenyl)-1-methylurea], the EC50 was above 30000 nM in test [1] (setting [4]) and 85.8 nM in test [2] (setting [5]). Besides, in test [3] (setting [6]), the IC50 – broadly, the point on the concentration scale where inhibition reaches its midpoint – was 68 nM.
With `CC(NC(=O)Nc1ccc(S(=O)(=O)Cc2ccc3c(c2)CNC3)cc1-c1cccnc1)c1ccccc1` (stereo not drawn) [H1533, 1-(4-((isoindolin-5-ylmethyl)sulfonyl)-2-(pyridin-3-yl)phenyl)-3-(1-phenylethyl)urea], the figures for the EC50 in test [1] (setting [7]) and in test [2] (setting [8]) were above 30000 nM and 76.2 nM, respectively. Also, the IC50 in test [3] (setting [9]) is 1700 nM.
As to `CC(NC(=O)Nc1ccc(S(=O)(=O)Cc2ccc3c(c2)CN(CC2CCCO2)C3)cc1)c1ccccc1` (stereo not drawn) [H1341, 1-(1-phenylethyl)-3-(4-(((2-((tetrahydrofuran-2-yl)methyl)isoindolin-5-yl)methyl)sulfonyl)phenyl)urea], the EC50 was above 30000 nM in test [1] (setting [4]) and 20.9 nM in test [2] (setting [5]). Moreover, the IC50 in test [3] (setting [6]) was determined as 69.7 nM.
`CC1c2ccccc2CCN1C(=O)Nc1ccc(S(=O)(=O)Cc2ccc3c(c2)CN(C)C3)cc1` (stereo not drawn) [H1418, 1-methyl-N-(4-(((2-methylisoindolin-5-yl)methyl)sulfonyl)phenyl)-3,4-dihydroisoquinoline-2(1H)-carboxamide]: the values for the EC50 in test [1] (setting [4]) and in test [2] (setting [5]) were above 30000 nM and 69.5 nM, respectively. In addition, in test [3] (setting [6]), the IC50 turned out to be 2700 nM.
As to `CC(NC(=O)Nc1ccc(S(=O)(=O)Cc2ccc3c(c2)CNC3)c(CO)c1)c1ccccc1` (stereo not drawn) [H1520, 1-(3-(hydroxymethyl)-4-((isoindolin-5-ylmethyl)sulfonyl)phenyl)-3-(1-phenylethyl)urea], the results for the EC50 in test [1] (setting [7]) and in test [2] (setting [8]) were above 30000 nM and 12.7 nM, respectively. Further, in test [3] (setting [9]), the IC50 is 26.2 nM.
Consider `CC(c1ccccc1)n1c(=O)[nH]c2ccc(S(=O)(=O)Cc3ccc4c(c3)CNC4)cc2c1=O` (stereo not drawn) [H1469, 6-((isoindolin-5-ylmethyl)sulfonyl)-3-(1-phenylethyl)quinazoline-2,4(1H,3H)-dione], for which the EC50 was found to be 110 nM in test [1] (heading: Activity EC50/EMax, ghrelin agonist potency, read-out: Activity EC50/EMax) and 26 nM in test [2] (setting [8]). Besides, the IC50 in test [3] (setting [9]) was determined as 110 nM.
On to `CC(NC(=O)Nc1ccc(S(=O)(=O)Cc2ccc3c(c2)CNC3)cc1F)c1c(F)cccc1F` (stereo not drawn) [H1411, 1-(1-(2,6-difluorophenyl)ethyl)-3-(2-fluoro-4-((isoindolin-5-ylmethyl)sulfonyl)phenyl)urea], for which the figures for the EC50 in test [1] (setting [4]) and in test [2] (setting [5]) were above 30000 nM and 17.8 nM, respectively. Further, the 50% inhibitory concentration (IC50) in test [3] (setting [6]) was 124 nM.
On to `CC(NC(=O)Nc1ccc(S(=O)(=O)CC2=CC3CCC(C2)N3)cc1)c1cccc(Cl)c1Cl` (stereo not drawn) [H1488, 1-(4-(((8-azabicyclo[3.2.1]oct-2-en-3-yl)methyl)sulfonyl)phenyl)-3-(1-(2,3-dichlorophenyl)ethyl)urea], for which the EC50 in test [1] (setting [7]) was above 30000 nM; in test [2] (setting [8]), 668 nM. The IC50 in test [3] (setting [9]) was 2050 nM.
In the same order, the values of `CC(NC(=O)Nc1ccc(S(=O)(=O)Cc2ccc3c(c2)CNC3)c(C(N)=O)c1)c1ccccc1` (stereo not drawn) [H1531, 2-((isoindolin-5-ylmethyl)sulfonyl)-5-(3-(1-phenylethyl)ureido)benzamide] are above 30000 nM, 444 nM and 418 nM.
For `CC(NC(=O)Nc1ccc(S(=O)(=O)Cc2ccc3c(c2)CNC3)cc1C(C)(C)O)c1ccccc1` (stereo not drawn) [H1512, 1-(2-(2-hydroxypropan-2-yl)-4-((isoindolin-5-ylmethyl)sulfonyl)phenyl)-3-(1-phenylethyl)urea], in that order: above 30000 nM, 273 nM and 582 nM.
With `CC(NC(=O)Nc1ccc(S(=O)(=O)Cc2ccc3c(c2)CNC3)cc1-c1cnn(C)c1)c1ccccc1` (stereo not drawn) [H1535, 1-(4-((isoindolin-5-ylmethyl)sulfonyl)-2-(1-methyl-1H-pyrazol-4-yl)phenyl)-3-(1-phenylethyl)urea], the EC50 in test [1] (setting [7]) was above 30000 nM; in test [2] (setting [8]), 21.4 nM. In test [3] (setting [9]), the IC50 turned out to be 493 nM.
`CC(NC(=O)Nc1ccc(S(=O)(=O)Cc2ccc(CO)cc2)cc1)c1cccc(Cl)c1Cl` (stereo not drawn) [H1430, 1-(1-(2,3-dichlorophenyl)ethyl)-3-(4-((4-(hydroxymethyl)benzyl)sulfonyl)phenyl)urea]: the EC50 is above 30000 nM in test [1] (setting [4]) and 56.4 nM in test [2] (setting [5]). Besides, in test [3] (setting [6]), the 50% inhibitory concentration (IC50) worked out at 2470 nM.
For `CC(=O)N1CC(NC(=O)Nc2ccc(S(=O)(=O)Cc3ccc4c(c3)CNC4)cc2)c2ccccc21` (stereo not drawn) [H1353, 1-(1-acetylindolin-3-yl)-3-(4-((isoindolin-5-ylmethyl)sulfonyl)phenyl)urea], in that order: above 30000 nM, 8230 nM and 5100 nM.
For `CC(NC(=O)Nc1ccc(S(=O)(=O)Cc2cc(Cl)c3c(c2)CNC3)cc1)c1ccccc1` (stereo not drawn) [H1405, 1-(4-(((7-chloroisoindolin-5-yl)methyl)sulfonyl)phenyl)-3-(1-phenylethyl)urea], in that order: above 30000 nM, 90 nM and 1860 nM.
For `COc1cccc(OC)c1C(C)NC(=O)Nc1ccc(S(=O)(=O)Cc2ccc3c(c2)CNC3)cc1` (stereo not drawn) [H1450, 1-(1-(2,6-dimethoxyphenyl)ethyl)-3-(4-((isoindolin-5-ylmethyl)sulfonyl)phenyl)urea], in that order: above 30000 nM, 182 nM and 290 nM.
Take `CC(NC(=O)Nc1ccc(S(=O)(=O)Cc2ccc3c(c2)CN(C)C3)cc1)c1ccccn1` (stereo not drawn) [H1307, 1-(4-(((2-methylisoindolin-yl)methyl)sulfonyl)phenyl)-3-(1-(pyridin-2-yl)ethyl)urea]: the EC50 in test [1] (setting [4]) was above 30000 nM; in test [2] (setting [5]) it was 935 nM. In addition, the IC50 in test [3] (setting [6]) came to 2300 nM.
In the case of `CC(NC(=O)Nc1ccc(S(=O)(=O)Cc2ccc3c(c2)CNC3)c(C(=O)O)c1)c1ccccc1` (stereo not drawn) [H1530, 2-((isoindolin-5-ylmethyl)sulfonyl)-5-(3-(1-phenylethyl)ureido)benzoic acid], the EC50 in test [1] (setting [7]) was above 30000 nM; in test [2] (setting [8]), 784 nM. Also, the IC50 in test [3] (setting [9]) worked out at 614 nM.
In the same order, the values of `CC(NC(=O)Nc1ccc(S(=O)(=O)Cc2ccc3c(c2)C(F)(F)CNC3)cc1)c1ccccc1` (stereo not drawn) [H1545, 1-(4-(((4,4-difluoro-1,2,3,4-tetrahydroisoquinolin-6-yl)methyl)sulfonyl)phenyl)-3-(1-phenylethyl)urea] are above 30000 nM, 19.1 nM and 1720 nM.
In the case of `CCN(CC)Cc1ccc(CS(=O)(=O)c2ccc(NC(=O)NC(C)c3ccccc3)cc2)cc1` (stereo not drawn) [H1304, 1-(4-((4-((diethylamino)methyl)benzyl)sulfonyl)phenyl)-3-(1-phenylethyl)urea], the EC50 in test [1] (setting [4]) is above 30000 nM; in test [2] (setting [5]) it was 182 nM. For the same compound, in test [3] (setting [6]), the IC50 was 145 nM.
For `CC(NC(=O)N(C)c1ccc(S(=O)(=O)Cc2ccc3c(c2)CN(C)C3)cc1)c1ccccc1` (stereo not drawn) [H1377, 1-methyl-1-(4-(((2-methylisoindolin-5-yl)methyl)sulfonyl)phenyl)-3-(1-phenylethyl)urea], in that order: above 30000 nM, 384 nM and 5520 nM.
Consider `CC(NC(=O)Nc1ccc(S(=O)(=O)Cc2ccc3c(c2)C(=O)NC3)cc1)c1ccccc1` (stereo not drawn) [H1291, 1-(4-(((3-oxoisoindolin-5-yl)methyl)sulfonyl)phenyl)-3-(1-phenylethyl)urea], for which the results for the EC50 in test [1] (setting [4]) and in test [2] (setting [5]) were above 30000 nM and 468 nM, respectively. The IC50 in test [3] (setting [6]) is 1200 nM.
On to `CC(NC(=O)Nc1ccc(S(=O)(=O)Cc2ccc3c(c2)CNC3)cc1CO)c1ccccc1` (stereo not drawn) [H1467, 1-(2-(hydroxymethyl)-4-((isoindolin-5-ylmethyl)sulfonyl)phenyl)-3-(1-phenylethyl)urea], for which the values for the EC50 in test [1] (setting [7]) and in test [2] (setting [8]) were above 30000 nM and 19.7 nM, respectively. Further, the IC50 in test [3] (setting [9]) is 121 nM.
In the same order, the values of `CC(NC(=O)N(O)c1ccc(S(=O)(=O)Cc2ccc3c(c2)CNC3)cc1)c1ccccc1` (stereo not drawn) [H1473, 1-hydroxy-1-(4-((isoindolin-5-ylmethyl)sulfonyl)phenyl)-3-(1-phenylethyl)urea] are above 30000 nM, 515 nM and 2240 nM.
`CC(NC(=O)Nc1ccc(S(=O)(=O)CC2CCCN(C(C)C)C2)cc1)c1cccc(Cl)c1Cl` (stereo not drawn) [H1376, 1-(1-(2,3-dichlorophenyl)ethyl)-3-(4-(((1-isopropylpiperidin-3-yl)methyl)sulfonyl)phenyl)urea]: the EC50 in test [1] (setting [4]) is above 30000 nM; in test [2] (setting [5]), 631 nM. Also, in test [3] (setting [6]), the IC50 amounted to 6890 nM.
In the same order, the values of `CC(NC(=O)Nc1ccc(S(=O)(=O)Cc2cc3c(c(C(F)(F)F)c2)CNCC3)cc1F)c1cccc(Cl)c1Cl` (stereo not drawn) [H1400, 1-(1-(2,3-dichlorophenyl)ethyl)-3-(2-fluoro-4-(((8-(trifluoromethyl)-1,2,3,4-tetrahydroisoquinolin-6-yl)methyl)sulfonyl)phenyl)urea] are above 30000 nM, 15.4 nM and 70.5 nM.
In the same order, the values of `CC(NC(=O)Nc1ccc(S(=O)(=O)Cc2ccc3c(c2)CN(C)C3)cc1)c1cncnc1` (stereo not drawn) [H1309, 1-(4-(((2-methylisoindolin-5-yl)methyl)sulfonyl)phenyl)-3-(1-(pyrimidin-5-yl)ethyl)urea] are above 30000 nM, 1840 nM and 4500 nM.

These data come from patent US10501479B2, “Benzenesulfonyl-asymmetric ureas and medical uses thereof” (HELSINN HEALTHCARE SA, priority 2016, dated 2019).
